Values quoted from earlier work in patent publication US20250295562A1, “Formulation for treatment of melasma, hyperpigmentation, and dark spots” (priority 2024, published 2025).

Experiments:
[1] = clinical
[2] = tested on: bacteria
[3] = tested on: collagenase

Row | Compound | anti-acne effect [1] | bactericidal activity [2] | anticollagenase inhibitory activity [3]
1 | CCCCC/C=C\C/C=C\CCCCCCCC(=O)OCC [Ethyl Linoleate, Ethyl linoleate] | effective anti-acne agent |  | 
2 | CC(C)=CCC1=C(O)C(C(=O)CC(C)C)=C(O)C(CC=C(C)C)(CC=C(C)C)C1=O [lupulone] |  | exhibited bactericidal activity | moderate to strong
3 | COc1cc(O)c(CC=C(C)C)c(O)c1C(=O)/C=C/c1ccc(O)cc1 [xanthohumol] |  | exhibited bactericidal activity | moderate to strong
